# Results as given in patent publication US10519099B2, “Cystobactamides” (priority 2014, dated 2019).
# Like-named read-outs stand apart in the source and are kept apart here.
# What was measured:
# [1] = test system: Acinetobacter baumannii DSM-30008; test: MIC microdilution, A. baumannii DSM-30008; format: cell-based; settings: Acinetobacter baumannii, DSM30008
# Protocol: (§1) Indicator strains used in susceptibility assays were either part of our strain collection or purchased from the German Collection of Microorgansims and Cell Cultures (DSMZ) or from the American Type Culture Collection (ATCC). E. coli strain WT and corresponding E. coli mutants were kindly provided by Prof. Dr. P. Heisig, Pharmaceutical Biology and Microbiology, University of Hamburg. E. coli strains JW0401-1 (WT) and Δtsx were obtained from the CGSC collection.
# (§2) MIC values were determined in standardized microdilution assays. Overnight cultures were diluted in the appropriate growth medium to achieve an inoculum of 10^4-10^6 cfu/mL. Yeasts were grown in Myc medium (1% phytone peptone, 1% glucose, 50 mM HEPES, pH 7.0), S. pneumonia and Enterococcus spp. in tryptic soy broth (TSB: 1.7% peptone casein, 0.3% peptone soymeal, 0.25% glucose, 0.5% NaCl, 0.25% K2HPO4; pH 7.3); M. smegmatis in Middlebrook 7H9 medium supplemented with 10% Middlebrook ADC enrichment and 2 ml/I glycerol). All other listed bacteria were grown in Müller-Hinton broth (0.2% beef infusion solids, 1.75% casein hydrolysate, 0.15% starch, pH 7.4). Cystobactamides and reference drugs were added directly to the cultures in sterile 96-well plates as duplicates and serial dilutions were prepared. Microorganisms were grown on a microplate shaker (750 rpm, 30-37° C., 18-48 h), except S. pneumonia, which was grown at non-shaking conditions (37° C., 5% CO2, 18 h). Growth inhibition was assessed by visual inspection and the MIC was defined as the lowest concentration of compound that inhibited visible growth.
# [2] = test system: E. coli WT; test: MIC microdilution, E. coli WT; format: cell-based, Escherichia coli; settings: Escherichia coli
# Protocol: as §1, §2
# [3] = test system: E. coli WT-III [marRΔ74bp]; test: MIC microdilution, E. coli WT-III [marRΔ74bp]; format: cell-based, Escherichia coli
# Protocol: as §1, §2
# [4] = test system: P. aeruginosa DSM-24600 (ESBL); test: MIC microdilution, P. aeruginosa DSM-24600 (ESBL); format: cell-based, Pseudomonas aeruginosa; settings: Pseudomonas aeruginosa, DSM24600
# Protocol: as §1, §2
# [5] = test system: Proteus vulgaris DSM-2140; test: MIC microdilution, P. vulgaris DSM-2140; format: cell-based; settings: Proteus vulgaris, DSM2140
# Protocol: as §1, §2
# [6] = test system: Burkholderia cenocepacia DSM-16553; test: MIC microdilution, Burkholderia cenocepacia DSM-16553; format: cell-based; settings: DSM16553, larger panel, read-out: MIC Burkholderia cenocepacia DSM-16553
# Protocol: as §1
# as §2, with “Cystobactamides and reference drugs were added directly to the cultures in sterile 96-well plates as duplicates and serial dilutions were prepared. Microorganisms were grown on a microplate shaker (750 rpm, 30-37° C., 18-48 h), except S. pneumonia, which was grown at non-shaking conditions (37° C., 5% CO2, 18 h).” left out
# [7] = test system: Chromobacterium violaceum DSM-30191; test: MIC microdilution, Chromobacterium violaceum DSM-30191; format: cell-based; settings: DSM30191, larger panel, read-out: MIC Chromobacterium violaceum DSM-30191
# Protocol: as §1
# as §2, with “Cystobactamides and reference drugs were added directly to the cultures in sterile 96-well plates as duplicates and serial dilutions were prepared. Microorganisms were grown on a microplate shaker (750 rpm, 30-37° C., 18-48 h), except S. pneumonia, which was grown at non-shaking conditions (37° C., 5% CO2, 18 h).” left out
# [8] = test system: Escherichia coli MI [gyrA(S83L)]; test: MIC microdilution, E. coli MI [gyrA(S83L)]; format: cell-based; settings: read-out: MIC Escherichia coli MI [gyrA(S83L)]
# Protocol: as §1
# as §2, with “Cystobactamides and reference drugs were added directly to the cultures in sterile 96-well plates as duplicates and serial dilutions were prepared. Microorganisms were grown on a microplate shaker (750 rpm, 30-37° C., 18-48 h), except S. pneumonia, which was grown at non-shaking conditions (37° C., 5% CO2, 18 h).” left out
# [9] = test system: Escherichia coli WT-3.2 [gyrA(D87G)]; test: MIC microdilution, E. coli WT-3.2 [gyrA(D87G)]; format: cell-based; settings: read-out: MIC Escherichia coli WT-3.2 [gyrA(D87G)]
# Protocol: as §1
# as §2, with “Cystobactamides and reference drugs were added directly to the cultures in sterile 96-well plates as duplicates and serial dilutions were prepared. Microorganisms were grown on a microplate shaker (750 rpm, 30-37° C., 18-48 h), except S. pneumonia, which was grown at non-shaking conditions (37° C., 5% CO2, 18 h).” left out
# [10] = test system: Escherichia coli DSM-12242 (NAL^R); test: MIC microdilution, E. coli DSM-12242 (NAL^R); format: cell-based; settings: DSM12242, read-out: MIC Escherichia coli DSM-12242 (NAL^R)
# Protocol: as §1
# as §2, with “Cystobactamides and reference drugs were added directly to the cultures in sterile 96-well plates as duplicates and serial dilutions were prepared. Microorganisms were grown on a microplate shaker (750 rpm, 30-37° C., 18-48 h), except S. pneumonia, which was grown at non-shaking conditions (37° C., 5% CO2, 18 h).” left out
# [11] = test system: Escherichia coli ATCC35218; test: MIC microdilution, E. coli ATCC35218; format: cell-based; settings: ATCC35218, larger panel, read-out: MIC Escherichia coli ATCC35218
# Protocol: as §1
# as §2, with “Cystobactamides and reference drugs were added directly to the cultures in sterile 96-well plates as duplicates and serial dilutions were prepared. Microorganisms were grown on a microplate shaker (750 rpm, 30-37° C., 18-48 h), except S. pneumonia, which was grown at non-shaking conditions (37° C., 5% CO2, 18 h).” left out
# [12] = test system: Escherichia coli ATCC25922; test: MIC microdilution, E. coli ATCC25922; format: cell-based; settings: ATCC25922, larger panel, read-out: MIC Escherichia coli ATCC25922
# Protocol: as §1
# as §2, with “Cystobactamides and reference drugs were added directly to the cultures in sterile 96-well plates as duplicates and serial dilutions were prepared. Microorganisms were grown on a microplate shaker (750 rpm, 30-37° C., 18-48 h), except S. pneumonia, which was grown at non-shaking conditions (37° C., 5% CO2, 18 h).” left out
# [13] = test system: Enterobacter aerogenes DSM-30053; test: MIC microdilution, Enterobacter aerogenes DSM-30053; format: cell-based; settings: Klebsiella aerogenes, DSM30053; larger panel; read-out: MIC Enterobacter aerogenes DSM-30053
# Protocol: as §1
# as §2, with “Cystobactamides and reference drugs were added directly to the cultures in sterile 96-well plates as duplicates and serial dilutions were prepared. Microorganisms were grown on a microplate shaker (750 rpm, 30-37° C., 18-48 h), except S. pneumonia, which was grown at non-shaking conditions (37° C., 5% CO2, 18 h).” left out
# [14] = test system: Pseudomonas aeruginosa PA14; test: MIC microdilution, P. aeruginosa PA14; format: cell-based; settings: Pseudomonas aeruginosa, PA14; larger panel; read-out: MIC Pseudomonas aeruginosa PA14
# Protocol: as §1, §2
# [15] = test system: Pseudomonas aeruginosa ATCC27853; test: MIC microdilution, P. aeruginosa ATCC27853; format: cell-based; settings: Pseudomonas aeruginosa, ATCC27853; larger panel; read-out: MIC Pseudomonas aeruginosa ATCC27853
# Protocol: as §1, §2
# [16] = test system: Pseudomonas aeruginosa DSM-24599; test: MIC microdilution, P. aeruginosa DSM-24599; format: cell-based; settings: Pseudomonas aeruginosa, DSM24599; larger panel; read-out: MIC Pseudomonas aeruginosa DSM-24599
# Protocol: as §1, §2
# [17] = test system: Serratia marcescens DSM-30121; test: MIC microdilution, Serratia marcescens DSM-30121; format: cell-based; settings: Serratia marcescens, DSM30121; larger panel; read-out: MIC Serratia marcescens DSM-30121
# Protocol: as §1, §2
# [18] = test system: Mycobacterium smegmatis ATCC700084; test: MIC microdilution, Mycobacterium smegmatis ATCC700084; format: cell-based; settings: Mycolicibacterium smegmatis, ATCC700084; larger panel; read-out: MIC Mycobacterium smegmatis ATCC700084
# Protocol: as §1
# as §2, with “Cystobactamides and reference drugs were added directly to the cultures in sterile 96-well plates as duplicates and serial dilutions were prepared. Microorganisms were grown on a microplate shaker (750 rpm, 30-37° C., 18-48 h), except S. pneumonia, which was grown at non-shaking conditions (37° C., 5% CO2, 18 h).” left out
# [19] = test system: Bacillus subtilis DSM-10; test: MIC microdilution, Bacillus subtilis DSM-10; format: cell-based; settings: DSM10, larger panel, read-out: MIC Bacillus subtilis DSM-10
# Protocol: as §1
# as §2, with “Cystobactamides and reference drugs were added directly to the cultures in sterile 96-well plates as duplicates and serial dilutions were prepared. Microorganisms were grown on a microplate shaker (750 rpm, 30-37° C., 18-48 h), except S. pneumonia, which was grown at non-shaking conditions (37° C., 5% CO2, 18 h).” left out
# [20] = test system: Enterococcus faecalis ATCC29212; test: MIC microdilution, Enterococcus faecalis ATCC29212; format: cell-based; settings: ATCC29212, larger panel, read-out: MIC Enterococcus faecalis ATCC29212
# Protocol: as §1
# as §2, with “Cystobactamides and reference drugs were added directly to the cultures in sterile 96-well plates as duplicates and serial dilutions were prepared. Microorganisms were grown on a microplate shaker (750 rpm, 30-37° C., 18-48 h), except S. pneumonia, which was grown at non-shaking conditions (37° C., 5% CO2, 18 h).” left out
# [21] = test system: Enterococcus faecium DSM-20477; test: MIC microdilution, Enterococcus faecium DSM-20477; format: cell-based; settings: Enterococcus faecium, DSM20477; larger panel; read-out: MIC Enterococcus faecium DSM-20477
# Protocol: as §1, §2
# [22] = test system: Micrococcus luteus DSM-1790; test: MIC microdilution, Micrococcus luteus DSM-1790; format: cell-based; settings: DSM1790, larger panel, read-out: MIC Micrococcus luteus DSM-1790
# Protocol: as §1
# as §2, with “Cystobactamides and reference drugs were added directly to the cultures in sterile 96-well plates as duplicates and serial dilutions were prepared. Microorganisms were grown on a microplate shaker (750 rpm, 30-37° C., 18-48 h), except S. pneumonia, which was grown at non-shaking conditions (37° C., 5% CO2, 18 h).” left out
# [23] = test system: Staphylococcus epidermidis DSM-28765; test: MIC microdilution, Staphylococcus epidermidis DSM-28765; format: cell-based; settings: Staphylococcus epidermidis, DSM28765; larger panel; read-out: MIC Staphylococcus epidermidis DSM-28765
# Protocol: as §1, §2
# [24] = test system: Streptococcus pneumoniae DSM-20566; test: MIC microdilution, Streptococcus pneumoniae DSM-20566; format: cell-based; settings: DSM20566, larger panel, read-out: MIC Streptococcus pneumoniae DSM-20566
# Protocol: as §1
# as §2, with “Cystobactamides and reference drugs were added directly to the cultures in sterile 96-well plates as duplicates and serial dilutions were prepared. Microorganisms were grown on a microplate shaker (750 rpm, 30-37° C., 18-48 h), except S. pneumonia, which was grown at non-shaking conditions (37° C., 5% CO2, 18 h).” left out
smiles,measurement,setting,value
"O=C(O)c1cn(C2CC2)c2cc(N3CCNCC3)c(F)cc2c1=O [CP, Ciprofloxacin, reference compound]",MIC,"[1]; Gram-negative set, read-out: MIC A. baumannii DSM-30008",0.8 µg/mL
same,MIC,"[1]; larger panel, read-out: MIC Acinetobacter baumannii DSM-30008",0.2 to 0.4 µg/mL
same,MIC,"[2]; Gram-negative set, read-out: MIC E. coli WT",0.013 µg/mL
same,MIC,"[2]; larger panel, read-out: MIC Escherichia coli WT",0.013 µg/mL
same,MIC E. coli WT-III [marRΔ74bp],[3]; Gram-negative set,0.1 µg/mL
same,MIC Escherichia coli WTIII (marRΔ74bp),[3]; larger panel,0.1 µg/mL
same,MIC,"[4]; Gram-negative set, read-out: MIC P. aeruginosa DSM-24600 (ESBL)",3.2 µg/mL
same,MIC,"[4]; larger panel, read-out: MIC Pseudomonas aeruginosa DSM-24600 (ESBL)",3.2 µg/mL
same,MIC,"[5]; Gram-negative set, read-out: MIC P. vulgaris DSM-2140",0.01 µg/mL
same,MIC,"[5]; larger panel, read-out: MIC Proteus vulgaris DSM-2140",0.01 µg/mL
same,MIC,[6],> 6.4 µg/mL
same,MIC,[7],0.006 to 0.013 µg/mL
same,MIC,[8],0.4 to 0.8 µg/mL
same,MIC,[9],0.4 µg/mL
same,MIC,[10],0.05 µg/mL
same,MIC,[11],0.013 µg/mL
same,MIC,[12],0.006 µg/mL
same,MIC,[13],0.1 to 0.2 µg/mL
same,MIC,[14],0.1 µg/mL
same,MIC,[15],0.1 to 0.2 µg/mL
same,MIC,[16],> 6.4 µg/mL
same,MIC,[17],0.1 µg/mL
same,MIC,[18],0.2 to 0.4 µg/mL
same,MIC,[19],0.1 µg/mL
same,MIC,[20],0.8 µg/mL
same,MIC,[21],> 6.4 µg/mL
same,MIC,[22],0.8 to 1.6 µg/mL
same,MIC,[23],0.2 µg/mL
same,MIC,[24],0.8 to 1.6 µg/mL
